The results in this text go back to ChEMBL document CHEMBL1201862, “PubChem BioAssay data set” (2004).

Structures are written as SMILES.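 Cells were grown in 96-well plates and exposed to each compound for 48 hours at five concentrations; endpoints were interpolated linearly between bracketing concentrations, or set to the highest concentration if not reached. Abbreviation: GI50, concentration required for 50% inhibition of growth.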 Calls of active or inactive are those of the source. Rule as the data show it: active = GI50 up to about 1.1 µM and inactive = higher.

Test systems include A549; ACHN; HCT-15; HOP-92; HT-29; IGROV-1; M19-MEL; OVCAR-8; RPMI-8226; SF-268; SF-539; SK-MEL-2; SN12C; SNB-75; U-251; UACC-62; OVCAR-5.
Common to all, as to test: NCI-60 cell line screen, 48 h

For the compound `CC(=O)OC1COC(N2C(=O)C(=O)c3ccccc32)C(OC(C)=O)C1OC(C)=O` (stereo unspecified), the GI50 was > 100 µM (inactive) in the assay on A549; > 100 µM (inactive) in the assay on ACHN; > 100 µM with HCT-15; > 100 µM (inactive) in the assay with HOP-92; > 100 µM (inactive) in the assay on HT-29; > 100 µM (inactive) with IGROV-1. In addition, the GI50 in the assay with M19-MEL is 34.8 µM (inactive); with OVCAR-8, > 100 µM (inactive); in the assay with RPMI-8226 it was > 100 µM (inactive); in the assay with SF-268, > 100 µM (inactive); in the assay on SF-539, > 100 µM (inactive); with SK-MEL-2, > 100 µM (inactive). The GI50 was > 100 µM (inactive) in the assay with SN12C, > 100 µM (inactive) in the assay on SNB-75, > 100 µM (inactive) in the assay on U-251 and 68.9 µM (inactive) with UACC-62.
In the case of `CC(=O)C1=C(C)NC2C=CC=CN12` (stereo unspecified), the GI50 with A549 was > 100 µM (inactive); in the assay on ACHN, > 100 µM (inactive); in the assay with HCT-15, > 100 µM; in the assay on HOP-92, > 100 µM (inactive); in the assay with HT-29 it was > 100 µM (inactive); with IGROV-1 it was > 100 µM (inactive). Moreover, the GI50 in the assay with M19-MEL, in the assay with OVCAR-5, in the assay with OVCAR-8, in the assay on RPMI-8226, with SF-268 and in the assay on SF-539 was > 100 µM (inactive) throughout. Also, the GI50 in the assay on SK-MEL-2, with SN12C, in the assay with SNB-75, in the assay on U-251 and in the assay with UACC-62 was > 100 µM (inactive) throughout.
As for `COC(=O)C[S+]([O-])c1ccccc1` (stereo unspecified), the GI50 is 26.8 µM (inactive) in the assay on A549; 33.7 µM (inactive) in the assay with ACHN; 28.7 µM with HCT-15; 17.6 µM (inactive) with HOP-92; 36.6 µM (inactive) in the assay with HT-29; 19.2 µM (inactive) in the assay on IGROV-1. The GI50 was 30.5 µM (inactive) in the assay on M19-MEL; 68.4 µM (inactive) with OVCAR-5; 27.5 µM (inactive) in the assay with OVCAR-8; 21.9 µM (inactive) in the assay on RPMI-8226; 14 µM (inactive) with SF-268; 20.9 µM (inactive) in the assay with SF-539. The GI50 was 35.6 µM (inactive) with SK-MEL-2; 17.6 µM (inactive) in the assay with SN12C; > 10 µM (inactive) in the assay on SNB-75; 24.4 µM (inactive) in the assay on U-251; 29.2 µM (inactive) in the assay on UACC-62.
`CCc1cccc(C(C)C)c1C1C(=O)C(=O)N(c2nc3ccccc3s2)C(=O)C1=O`: the GI50 is > 100 µM (inactive) with A549; > 100 µM (inactive) in the assay with ACHN; > 100 µM in the assay on HCT-15; 38.7 µM (inactive) in the assay on HOP-92; > 100 µM (inactive) in the assay with HT-29; > 100 µM (inactive) with IGROV-1. Besides, the GI50 in the assay on M19-MEL, in the assay on OVCAR-5, in the assay on RPMI-8226, in the assay on SF-268, in the assay with SF-539 and in the assay on SK-MEL-2 was > 100 µM (inactive) each time. The GI50 in the assay with SN12C, with SNB-75, in the assay on U-251 and in the assay on UACC-62 was > 100 µM (inactive) throughout.
Regarding `COc1ccc(CC#C/C=C/C(=O)NCC(C)C)cc1`, the GI50 is > 100 µM (inactive) in the assay with A549; > 100 µM (inactive) in the assay with ACHN; > 100 µM in the assay on HCT-15; > 100 µM (inactive) in the assay on HOP-92; > 100 µM (inactive) in the assay on HT-29; > 100 µM (inactive) in the assay with IGROV-1. The GI50 with M19-MEL, in the assay on OVCAR-5, in the assay on OVCAR-8, in the assay with RPMI-8226, in the assay with SF-268 and in the assay on SF-539 was > 100 µM (inactive) throughout. In addition, the GI50 with SK-MEL-2 is > 100 µM (inactive); in the assay on SN12C, > 100 µM (inactive); with SNB-75 it was 55 µM (inactive); in the assay on U-251 it was > 100 µM (inactive); in the assay with UACC-62, > 100 µM (inactive).
For `COC(=O)N/N=C/c1oc(-c2ccccc2)c(-c2ccccc2)c1[N+](=O)[O-]`, the GI50 was > 100 µM (inactive) with A549; > 100 µM (inactive) in the assay with ACHN; > 100 µM in the assay with HCT-15; > 100 µM (inactive) in the assay on HOP-92; > 100 µM (inactive) with HT-29; > 100 µM (inactive) with IGROV-1. Also, the GI50 in the assay with M19-MEL, in the assay with OVCAR-5, with OVCAR-8, with RPMI-8226, in the assay with SF-268 and with SF-539 was > 100 µM (inactive) throughout. Moreover, the GI50 in the assay with SN12C, in the assay with SNB-75, in the assay on U-251 and in the assay on UACC-62 was > 100 µM (inactive) throughout.
Take `C[N+](C)(C)CC1CCCCC1O` (stereo unspecified): the GI50 in the assay with ACHN is > 100 µM (inactive); with HCT-15, > 100 µM; with HOP-92, > 100 µM (inactive); in the assay with HT-29, > 100 µM (inactive); in the assay on IGROV-1, > 100 µM (inactive); in the assay with M19-MEL, > 100 µM (inactive). Also, the GI50 in the assay on OVCAR-5, in the assay with OVCAR-8, in the assay with RPMI-8226, in the assay with SF-268, in the assay with SF-539 and in the assay on SK-MEL-2 was > 100 µM (inactive) each time. In addition, the GI50 with SN12C, with SNB-75, in the assay with U-251 and in the assay on UACC-62 was > 100 µM (inactive) throughout.
Take `COc1cc2c(cc1OC)C(C(CBr)CBr)N(C1CCCC1)CC2` (stereo unspecified): the GI50 in the assay with A549 was > 100 µM (inactive); with ACHN it was > 100 µM (inactive); in the assay with HCT-15, > 100 µM; in the assay with HOP-92, 41.3 µM (inactive); with HT-29, > 100 µM (inactive); in the assay on IGROV-1 it was > 100 µM (inactive). Besides, the GI50 in the assay on M19-MEL, with OVCAR-5, with OVCAR-8, with RPMI-8226, with SF-268 and in the assay with SF-539 was > 100 µM (inactive) in each case. The GI50 in the assay with SK-MEL-2, with SNB-75, with U-251 and with UACC-62 was > 100 µM (inactive) each time.
Turning to `Cc1cc(C)[n+]2c(c1)C=CC2.[O-][Cl+3]([O-])([O-])[O-]`, the GI50 is 18.1 µM (inactive) in the assay on A549; 17.7 µM (inactive) in the assay with ACHN; 8.57 µM (inactive) with HOP-92; 15.9 µM (inactive) with HT-29; 21.2 µM (inactive) in the assay on M19-MEL; > 100 µM (inactive) with OVCAR-5. Also, the GI50 is 28.6 µM (inactive) with OVCAR-8; 64 µM (inactive) in the assay with SF-268; 22.8 µM (inactive) with SF-539; 11 µM (inactive) in the assay on SK-MEL-2; 31.2 µM (inactive) in the assay with SN12C; 6.05 µM (inactive) with SNB-75. Also, the GI50 in the assay with U-251 was 29.7 µM (inactive).
As to `N#CC(/C(CCCC(=O)Nc1cccc([N+](=O)[O-])c1)=N/NC(=O)c1cc2ccccc2cc1O)c1ccccc1` (stereo unspecified), the GI50 with A549 is 47.3 µM (inactive); in the assay with ACHN, 34.3 µM (inactive); with HCT-15, 17.9 µM; with HOP-92 it was 29.8 µM (inactive); in the assay with HT-29 it was 36.4 µM (inactive); with IGROV-1, 17.1 µM (inactive). Moreover, the GI50 with M19-MEL was 17.9 µM (inactive); with OVCAR-5, 36.5 µM (inactive); with OVCAR-8 it was 17.5 µM (inactive); in the assay on RPMI-8226, 35.4 µM (inactive); with SF-268, 48.1 µM (inactive); in the assay with SF-539, 27.4 µM (inactive). Further, the GI50 in the assay on SN12C is 35.6 µM (inactive); in the assay on SNB-75 it was > 100 µM (inactive); in the assay with U-251 it was 34.6 µM (inactive); with UACC-62, 15.8 µM (inactive).
In the case of `CCCC(C)NC1=C(NC(C)=O)C(=O)c2ccccc2C1=O` (stereo unspecified), the GI50 was > 100 µM (inactive) with A549; > 100 µM (inactive) in the assay on ACHN; > 100 µM in the assay on HCT-15; 47.9 µM (inactive) in the assay with HOP-92; > 100 µM (inactive) in the assay on HT-29; > 100 µM (inactive) with IGROV-1. Further, the GI50 in the assay with M19-MEL is 62.7 µM (inactive); in the assay on OVCAR-8 it was > 100 µM (inactive); in the assay with SF-268 it was > 100 µM (inactive); in the assay with SF-539, > 100 µM (inactive); in the assay with SK-MEL-2, > 100 µM (inactive); in the assay with SN12C it was > 100 µM (inactive). In addition, the GI50 with SNB-75, in the assay with U-251 and with UACC-62 was > 100 µM (inactive) throughout.
For `CC1=C(CO)C(=O)O[C@@H]([C@@H](C)[C@H]2CC[C@H]3[C@@H]4C[C@H]5O[C@]56[C@@H](O)C=CC(=O)[C@]6(C)[C@H]4CC[C@]23C)C1` [WITHAFERIN A], the GI50 is 3.31 µM (inactive) with A549; 1.7 µM (inactive) in the assay on ACHN; 0.446 µM in the assay on HCT-15; 0.467 µM (active) in the assay on HOP-92; 0.417 µM (active) in the assay on HT-29; 1.16 µM (inactive) in the assay with IGROV-1. In addition, the GI50 with M19-MEL was 1.5 µM (inactive); in the assay on OVCAR-5, 1.91 µM (inactive); in the assay with OVCAR-8 it was 0.374 µM (active); in the assay with RPMI-8226 it was 0.247 µM (active); with SF-268, 0.352 µM (active); in the assay on SF-539 it was 1.34 µM (inactive). Also, the GI50 in the assay on SK-MEL-2 was 0.601 µM (active); in the assay with SNB-75, 4.11 µM (inactive); in the assay on U-251 it was 0.247 µM (active); in the assay on UACC-62 it was 1.45 µM (inactive).
